Test results from PubChem BioAssay (NCI).
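Following 48 hours of exposure in 96-well plates, responses at five concentrations were used to interpolate endpoints linearly. The concentration for full growth arrest is given as TGI.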

System: NCI-H460 lung
Experiment: DTP human tumour cell line panel, 48 h

Row | SMILES | TGI [µM]
1 | Cc1ccc2c(=O)cc(-c3ccc(-c4ccccc4)s3)[nH]c2n1 | > 100
2 | OC1(c2ccccc2)CSC2=Nc3ccccc3C3CCN1N23 (centres undefined) | > 100

System: SNB-19 CNS
Experiment: DTP human tumour cell line panel, 48 h

Row | SMILES | TGI [µM]
3 | Nc1nc(Cl)c(N)c(NCC2(CO)CC(CCCc3ccccc3)C2)n1 (centres undefined) | > 100
4 | COc1nc(N)c(N=CC(OC(C)=O)C(OC(C)=O)C(COC(C)=O)OC(C)=O)c(=O)n1C (centres undefined) | > 100
5 | C#CCOCC12C=CC(O1)C1C(=O)OCC12 (centres undefined) | > 100
6 | Cc1nc(-c2ccc(N=Cc3ccc(N(CCOS(C)(=O)=O)CCOS(C)(=O)=O)cc3C)cc2)cs1 | > 100
7 | Cc1ccc2c(=O)cc(-c3ccc(-c4ccccc4)s3)[nH]c2n1 | > 100
8 | OC1(c2ccccc2)CSC2=Nc3ccccc3C3CCN1N23 (centres undefined) | 37.4

System: NCI-H522 lung
Experiment: DTP human tumour cell line panel, 48 h

Row | SMILES | TGI [µM]
9 | Nc1nc(Cl)c(N)c(NCC2(CO)CC(CCCc3ccccc3)C2)n1 (centres undefined) | 19.6
10 | COc1nc(N)c(N=CC(OC(C)=O)C(OC(C)=O)C(COC(C)=O)OC(C)=O)c(=O)n1C (centres undefined) | > 100
11 | C#CCOCC12C=CC(O1)C1C(=O)OCC12 (centres undefined) | > 100
12 | Cc1nc(-c2ccc(N=Cc3ccc(N(CCOS(C)(=O)=O)CCOS(C)(=O)=O)cc3C)cc2)cs1 | > 100
13 | Cc1ccc2c(=O)cc(-c3ccc(-c4ccccc4)s3)[nH]c2n1 | > 56.7
14 | OC1(c2ccccc2)CSC2=Nc3ccccc3C3CCN1N23 (centres undefined) | 40.5

System: PC-3 prostate
Experiment: DTP human tumour cell line panel, 48 h

Row | SMILES | TGI [µM]
15 | Nc1nc(Cl)c(N)c(NCC2(CO)CC(CCCc3ccccc3)C2)n1 (centres undefined) | > 91.5
16 | COc1nc(N)c(N=CC(OC(C)=O)C(OC(C)=O)C(COC(C)=O)OC(C)=O)c(=O)n1C (centres undefined) | > 100
17 | C#CCOCC12C=CC(O1)C1C(=O)OCC12 (centres undefined) | > 100
18 | Cc1nc(-c2ccc(N=Cc3ccc(N(CCOS(C)(=O)=O)CCOS(C)(=O)=O)cc3C)cc2)cs1 | > 100
19 | Cc1ccc2c(=O)cc(-c3ccc(-c4ccccc4)s3)[nH]c2n1 | 85.5
20 | OC1(c2ccccc2)CSC2=Nc3ccccc3C3CCN1N23 (centres undefined) | 29.5

System: ACHN renal
Experiment: DTP human tumour cell line panel, 48 h

Row | SMILES | TGI [µM]
21 | Nc1nc(Cl)c(N)c(NCC2(CO)CC(CCCc3ccccc3)C2)n1 (centres undefined) | 99.7
22 | COc1nc(N)c(N=CC(OC(C)=O)C(OC(C)=O)C(COC(C)=O)OC(C)=O)c(=O)n1C (centres undefined) | > 100
23 | C#CCOCC12C=CC(O1)C1C(=O)OCC12 (centres undefined) | > 100
24 | Cc1nc(-c2ccc(N=Cc3ccc(N(CCOS(C)(=O)=O)CCOS(C)(=O)=O)cc3C)cc2)cs1 | 19.2
25 | Cc1ccc2c(=O)cc(-c3ccc(-c4ccccc4)s3)[nH]c2n1 | > 100
26 | OC1(c2ccccc2)CSC2=Nc3ccccc3C3CCN1N23 (centres undefined) | 54.1

System: SF-295 CNS
Experiment: DTP human tumour cell line panel, 48 h

Row | SMILES | TGI [µM]
27 | Nc1nc(Cl)c(N)c(NCC2(CO)CC(CCCc3ccccc3)C2)n1 (centres undefined) | > 59.5
28 | COc1nc(N)c(N=CC(OC(C)=O)C(OC(C)=O)C(COC(C)=O)OC(C)=O)c(=O)n1C (centres undefined) | > 100
29 | C#CCOCC12C=CC(O1)C1C(=O)OCC12 (centres undefined) | > 100
30 | Cc1nc(-c2ccc(N=Cc3ccc(N(CCOS(C)(=O)=O)CCOS(C)(=O)=O)cc3C)cc2)cs1 | > 100
31 | Cc1ccc2c(=O)cc(-c3ccc(-c4ccccc4)s3)[nH]c2n1 | 99.5
32 | OC1(c2ccccc2)CSC2=Nc3ccccc3C3CCN1N23 (centres undefined) | 33.8

System: U251 CNS
Experiment: DTP human tumour cell line panel, 48 h

Row | SMILES | TGI [µM]
33 | Nc1nc(Cl)c(N)c(NCC2(CO)CC(CCCc3ccccc3)C2)n1 (centres undefined) | > 100
34 | COc1nc(N)c(N=CC(OC(C)=O)C(OC(C)=O)C(COC(C)=O)OC(C)=O)c(=O)n1C (centres undefined) | > 100
35 | C#CCOCC12C=CC(O1)C1C(=O)OCC12 (centres undefined) | > 100
36 | Cc1nc(-c2ccc(N=Cc3ccc(N(CCOS(C)(=O)=O)CCOS(C)(=O)=O)cc3C)cc2)cs1 | > 100
37 | Cc1ccc2c(=O)cc(-c3ccc(-c4ccccc4)s3)[nH]c2n1 | > 100
38 | OC1(c2ccccc2)CSC2=Nc3ccccc3C3CCN1N23 (centres undefined) | 28.1

System: UO-31 renal
Experiment: DTP human tumour cell line panel, 48 h

Row | SMILES | TGI [µM]
39 | Nc1nc(Cl)c(N)c(NCC2(CO)CC(CCCc3ccccc3)C2)n1 (centres undefined) | > 100
40 | COc1nc(N)c(N=CC(OC(C)=O)C(OC(C)=O)C(COC(C)=O)OC(C)=O)c(=O)n1C (centres undefined) | > 100
41 | C#CCOCC12C=CC(O1)C1C(=O)OCC12 (centres undefined) | > 100
42 | Cc1nc(-c2ccc(N=Cc3ccc(N(CCOS(C)(=O)=O)CCOS(C)(=O)=O)cc3C)cc2)cs1 | 62
43 | Cc1ccc2c(=O)cc(-c3ccc(-c4ccccc4)s3)[nH]c2n1 | 0.219
44 | OC1(c2ccccc2)CSC2=Nc3ccccc3C3CCN1N23 (centres undefined) | 28.7
